Reference: article PMC7714403 (JCI Insight, 2020)
Like-named read-outs stand apart in the source and are kept apart here.

Tests used:
Experiment in all cases: KiNativ, MOLM13 live cells
Format in all cases: cell-based
[1] = target: NEK8 (Homo sapiens, UniProt Q86SG6); conditions: MOLM-13; 100 nM, 2 hours; Lys2; read-out: Inhibition vs DMSO
Experimental: (§1) Samples were analyzed by KiNativ in situ kinase profiling by ActivX Biosciences.

[2] = target: NEK7 (Homo sapiens, UniProt Q8TDX7); conditions: MOLM-13; 100 nM, 2 hours; Lys1; read-out: Inhibition vs DMSO
Experimental: as §1

[3] = target: MAP2K7 (Homo sapiens, UniProt O14733); conditions: 100 nM, 2 hours; Lys2
MAP2K7, sequence (O14733 whole entry): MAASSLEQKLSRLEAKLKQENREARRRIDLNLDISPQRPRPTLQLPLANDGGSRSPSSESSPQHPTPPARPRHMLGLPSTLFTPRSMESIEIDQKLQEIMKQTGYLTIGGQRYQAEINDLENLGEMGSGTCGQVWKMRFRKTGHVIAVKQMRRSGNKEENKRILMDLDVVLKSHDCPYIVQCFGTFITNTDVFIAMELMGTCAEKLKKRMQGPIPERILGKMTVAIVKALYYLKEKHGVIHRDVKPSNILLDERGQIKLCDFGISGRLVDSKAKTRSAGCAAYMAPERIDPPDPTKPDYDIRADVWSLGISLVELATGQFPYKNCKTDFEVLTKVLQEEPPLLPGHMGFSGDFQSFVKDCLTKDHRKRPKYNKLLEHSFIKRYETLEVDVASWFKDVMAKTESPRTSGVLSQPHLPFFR
Experimental: as §1

[4] = target: T1, NEK9 (Homo sapiens, UniProt Q8TD19); conditions: MOLM-13, 2 h, 100 nM
T1 sequence (Q8TD19 1-979): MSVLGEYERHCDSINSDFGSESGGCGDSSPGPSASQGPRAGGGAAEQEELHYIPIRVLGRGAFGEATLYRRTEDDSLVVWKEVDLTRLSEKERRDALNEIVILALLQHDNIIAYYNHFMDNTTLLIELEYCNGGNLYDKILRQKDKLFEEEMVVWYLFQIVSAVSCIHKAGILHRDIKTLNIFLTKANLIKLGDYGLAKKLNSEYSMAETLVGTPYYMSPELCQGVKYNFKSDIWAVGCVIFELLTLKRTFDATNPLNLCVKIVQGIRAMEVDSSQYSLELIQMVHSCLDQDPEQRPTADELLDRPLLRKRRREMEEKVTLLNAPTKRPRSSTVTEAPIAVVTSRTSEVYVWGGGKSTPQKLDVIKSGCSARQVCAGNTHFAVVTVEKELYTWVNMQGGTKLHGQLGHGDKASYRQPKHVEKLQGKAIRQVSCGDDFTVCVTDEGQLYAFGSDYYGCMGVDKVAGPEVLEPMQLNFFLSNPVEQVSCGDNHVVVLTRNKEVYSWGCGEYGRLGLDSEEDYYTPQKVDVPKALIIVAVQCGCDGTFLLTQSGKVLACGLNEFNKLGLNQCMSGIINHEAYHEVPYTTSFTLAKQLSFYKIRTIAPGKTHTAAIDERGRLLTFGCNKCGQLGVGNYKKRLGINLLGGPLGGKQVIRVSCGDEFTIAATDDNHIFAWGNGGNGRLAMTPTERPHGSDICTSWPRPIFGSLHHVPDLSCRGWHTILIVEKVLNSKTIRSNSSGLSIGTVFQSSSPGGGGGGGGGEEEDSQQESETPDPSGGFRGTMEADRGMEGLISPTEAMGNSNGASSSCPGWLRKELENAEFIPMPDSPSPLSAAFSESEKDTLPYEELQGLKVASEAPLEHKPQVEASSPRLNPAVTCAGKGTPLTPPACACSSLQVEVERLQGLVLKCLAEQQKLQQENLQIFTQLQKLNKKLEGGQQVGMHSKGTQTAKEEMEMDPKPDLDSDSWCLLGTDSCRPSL
Experimental: as §1

[5] = target: DGKH (Homo sapiens, UniProt Q86XP1); conditions: MOLM-13; 100 nM, 2 hours; ATP; read-out: Inhibition vs DMSO
Experimental: as §1

[6] = target: T2, MLKL (Homo sapiens, UniProt Q8NB16); conditions: MOLM-13, 2 h, 100 nM
T2 sequence (Q8NB16 1-471): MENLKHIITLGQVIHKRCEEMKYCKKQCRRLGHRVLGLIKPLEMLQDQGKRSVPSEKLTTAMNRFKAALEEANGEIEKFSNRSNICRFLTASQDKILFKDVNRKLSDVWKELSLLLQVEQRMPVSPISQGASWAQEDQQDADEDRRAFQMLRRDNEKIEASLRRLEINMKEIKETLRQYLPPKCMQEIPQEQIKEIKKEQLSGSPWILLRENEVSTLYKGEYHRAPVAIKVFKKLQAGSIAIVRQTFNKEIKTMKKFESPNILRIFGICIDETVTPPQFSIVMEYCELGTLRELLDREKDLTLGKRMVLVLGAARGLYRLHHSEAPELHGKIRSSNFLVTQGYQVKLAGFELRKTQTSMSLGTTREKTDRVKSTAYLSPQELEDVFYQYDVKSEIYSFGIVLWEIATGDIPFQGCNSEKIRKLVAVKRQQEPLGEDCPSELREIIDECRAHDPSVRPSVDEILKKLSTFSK
Experimental: as §1

[7] = target: T3, ILK (Homo sapiens, UniProt Q13418); conditions: MOLM-13, 2 h, 100 nM
T3 sequence (Q13418 1-452): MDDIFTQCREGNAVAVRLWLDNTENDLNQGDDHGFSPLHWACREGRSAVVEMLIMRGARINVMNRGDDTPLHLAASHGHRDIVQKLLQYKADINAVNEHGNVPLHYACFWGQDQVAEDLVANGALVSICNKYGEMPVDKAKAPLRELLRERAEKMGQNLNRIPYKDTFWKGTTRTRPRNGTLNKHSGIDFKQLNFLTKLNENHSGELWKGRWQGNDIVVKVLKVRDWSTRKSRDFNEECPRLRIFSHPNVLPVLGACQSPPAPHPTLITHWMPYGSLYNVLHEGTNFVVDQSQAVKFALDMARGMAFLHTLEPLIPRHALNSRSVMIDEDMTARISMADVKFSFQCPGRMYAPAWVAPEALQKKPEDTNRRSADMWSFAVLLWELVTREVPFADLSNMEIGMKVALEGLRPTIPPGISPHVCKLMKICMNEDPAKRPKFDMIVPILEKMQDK
Experimental: as §1

[8] = target: PIK3CD (Homo sapiens, UniProt O00329); conditions: MOLM-13; 100 nM, 2 hours; ATP; read-out: Inhibition vs DMSO
PIK3CD, sequence (O00329 whole entry): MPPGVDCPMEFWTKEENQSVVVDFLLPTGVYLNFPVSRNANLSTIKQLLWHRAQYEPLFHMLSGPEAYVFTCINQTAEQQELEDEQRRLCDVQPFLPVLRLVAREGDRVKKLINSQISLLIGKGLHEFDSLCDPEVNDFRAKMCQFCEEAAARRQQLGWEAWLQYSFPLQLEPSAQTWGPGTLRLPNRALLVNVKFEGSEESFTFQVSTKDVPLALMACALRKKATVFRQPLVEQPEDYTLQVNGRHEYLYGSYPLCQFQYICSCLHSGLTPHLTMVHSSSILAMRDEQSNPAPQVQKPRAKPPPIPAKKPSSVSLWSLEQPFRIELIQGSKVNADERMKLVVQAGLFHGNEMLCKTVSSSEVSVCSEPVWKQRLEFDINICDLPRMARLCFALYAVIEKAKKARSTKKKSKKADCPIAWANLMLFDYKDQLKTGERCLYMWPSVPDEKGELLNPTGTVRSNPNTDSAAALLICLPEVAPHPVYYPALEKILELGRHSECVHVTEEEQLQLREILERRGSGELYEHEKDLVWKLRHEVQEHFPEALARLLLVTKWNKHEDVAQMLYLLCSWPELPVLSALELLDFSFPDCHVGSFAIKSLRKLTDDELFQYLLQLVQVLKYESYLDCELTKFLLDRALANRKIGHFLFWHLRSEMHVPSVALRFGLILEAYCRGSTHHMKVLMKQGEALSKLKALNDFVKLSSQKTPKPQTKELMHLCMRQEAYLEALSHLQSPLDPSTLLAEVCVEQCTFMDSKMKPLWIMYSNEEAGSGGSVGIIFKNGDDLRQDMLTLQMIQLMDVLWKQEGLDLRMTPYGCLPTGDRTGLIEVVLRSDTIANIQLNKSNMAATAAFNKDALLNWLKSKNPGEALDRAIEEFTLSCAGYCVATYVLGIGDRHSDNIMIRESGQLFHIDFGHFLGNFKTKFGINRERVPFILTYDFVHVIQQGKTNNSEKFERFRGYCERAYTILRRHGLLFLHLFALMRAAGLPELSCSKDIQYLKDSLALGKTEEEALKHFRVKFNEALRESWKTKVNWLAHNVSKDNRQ
PIK3CD, sequence (P27986 whole entry partner): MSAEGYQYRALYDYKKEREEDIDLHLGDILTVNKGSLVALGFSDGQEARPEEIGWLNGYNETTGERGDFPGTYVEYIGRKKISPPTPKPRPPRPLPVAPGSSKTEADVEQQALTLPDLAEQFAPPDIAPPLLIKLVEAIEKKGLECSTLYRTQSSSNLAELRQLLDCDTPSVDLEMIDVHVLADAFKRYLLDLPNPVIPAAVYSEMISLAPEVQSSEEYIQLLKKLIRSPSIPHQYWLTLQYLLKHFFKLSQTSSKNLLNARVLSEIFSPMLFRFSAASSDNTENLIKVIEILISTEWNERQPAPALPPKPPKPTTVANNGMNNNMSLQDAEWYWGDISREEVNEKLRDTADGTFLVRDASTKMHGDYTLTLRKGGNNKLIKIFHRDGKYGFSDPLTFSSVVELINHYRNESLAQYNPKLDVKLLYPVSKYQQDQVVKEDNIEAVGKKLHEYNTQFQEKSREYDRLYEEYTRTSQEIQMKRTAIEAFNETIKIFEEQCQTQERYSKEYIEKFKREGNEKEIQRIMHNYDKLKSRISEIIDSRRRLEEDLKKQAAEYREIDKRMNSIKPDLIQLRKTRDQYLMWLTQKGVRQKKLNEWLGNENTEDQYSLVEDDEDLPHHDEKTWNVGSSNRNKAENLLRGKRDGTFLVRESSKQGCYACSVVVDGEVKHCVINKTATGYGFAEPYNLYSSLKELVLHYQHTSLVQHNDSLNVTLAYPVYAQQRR
Experimental: as §1

[9] = target: YANK3 (Homo sapiens, UniProt Q86UX6); conditions: MOLM-13; 100 nM, 2 hours; Lys2; read-out: Inhibition vs DMSO
YANK3, sequence (Q86UX6 whole entry): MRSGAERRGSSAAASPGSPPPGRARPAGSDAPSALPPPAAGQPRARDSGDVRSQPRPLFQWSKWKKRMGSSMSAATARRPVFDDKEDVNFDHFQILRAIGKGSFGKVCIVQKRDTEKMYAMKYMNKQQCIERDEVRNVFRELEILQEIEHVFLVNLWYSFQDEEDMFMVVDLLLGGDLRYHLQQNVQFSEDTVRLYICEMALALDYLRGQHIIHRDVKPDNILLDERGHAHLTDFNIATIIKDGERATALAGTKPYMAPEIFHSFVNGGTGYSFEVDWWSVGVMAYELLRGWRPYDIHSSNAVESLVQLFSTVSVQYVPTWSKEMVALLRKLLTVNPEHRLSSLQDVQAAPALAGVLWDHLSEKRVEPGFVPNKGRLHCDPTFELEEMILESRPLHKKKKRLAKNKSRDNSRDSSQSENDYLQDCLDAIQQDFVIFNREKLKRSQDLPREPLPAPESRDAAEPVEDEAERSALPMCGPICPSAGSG
Experimental: as §1

[10] = target: IRE1 (Homo sapiens, UniProt O75460); conditions: MOLM-13; 100 nM, 2 hours; Lys2; read-out: Inhibition vs DMSO
Experimental: as §1

[11] = target: ACK (Homo sapiens, UniProt Q07912); conditions: MOLM-13; 100 nM, 2 hours; Lys1; read-out: Inhibition vs DMSO
ACK, sequence (Q07912 whole entry): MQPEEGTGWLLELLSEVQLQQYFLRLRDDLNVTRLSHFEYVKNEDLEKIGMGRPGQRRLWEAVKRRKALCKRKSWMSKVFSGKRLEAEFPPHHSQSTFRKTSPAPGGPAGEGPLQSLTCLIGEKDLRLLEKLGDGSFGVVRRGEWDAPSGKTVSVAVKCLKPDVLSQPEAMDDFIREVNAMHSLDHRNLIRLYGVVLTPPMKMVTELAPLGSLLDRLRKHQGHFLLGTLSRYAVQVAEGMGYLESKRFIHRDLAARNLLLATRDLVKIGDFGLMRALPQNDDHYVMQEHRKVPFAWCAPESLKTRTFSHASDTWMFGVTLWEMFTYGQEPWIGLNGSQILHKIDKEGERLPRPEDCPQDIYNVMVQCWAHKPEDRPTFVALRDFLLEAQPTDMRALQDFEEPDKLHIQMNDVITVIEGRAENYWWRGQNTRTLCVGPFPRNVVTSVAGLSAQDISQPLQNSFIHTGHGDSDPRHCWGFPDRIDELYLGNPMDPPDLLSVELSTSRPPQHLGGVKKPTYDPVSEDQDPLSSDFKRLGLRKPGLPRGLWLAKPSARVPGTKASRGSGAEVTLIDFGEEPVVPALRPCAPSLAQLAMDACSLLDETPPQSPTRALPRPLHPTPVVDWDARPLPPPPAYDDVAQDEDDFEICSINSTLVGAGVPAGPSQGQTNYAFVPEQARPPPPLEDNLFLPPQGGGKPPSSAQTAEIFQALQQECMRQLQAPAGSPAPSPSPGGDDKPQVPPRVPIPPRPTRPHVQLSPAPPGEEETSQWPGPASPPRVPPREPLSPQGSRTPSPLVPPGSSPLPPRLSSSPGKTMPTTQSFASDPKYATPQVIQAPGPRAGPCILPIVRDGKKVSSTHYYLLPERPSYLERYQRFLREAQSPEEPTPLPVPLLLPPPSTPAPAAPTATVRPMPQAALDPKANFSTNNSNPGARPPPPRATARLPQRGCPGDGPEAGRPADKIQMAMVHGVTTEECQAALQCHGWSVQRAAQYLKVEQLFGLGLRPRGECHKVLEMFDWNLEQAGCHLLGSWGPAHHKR
Experimental: as §1

[12] = target: PIK3CB (Homo sapiens, UniProt P42338); conditions: MOLM-13; 100 nM, 2 hours; ATP; read-out: Inhibition vs DMSO
Experimental: as §1

[13] = target: MAP3K2 (Homo sapiens, UniProt Q9Y2U5); conditions: MOLM-13; 100 nM, 2 hours; Lys1; read-out: Inhibition vs DMSO
Experimental: as §1

[14] = target: p70S6K (Homo sapiens, UniProt P23443); conditions: MOLM-13; 100 nM, 2 hours; Lys2; read-out: Inhibition vs DMSO
p70S6K, sequence (P23443 whole entry): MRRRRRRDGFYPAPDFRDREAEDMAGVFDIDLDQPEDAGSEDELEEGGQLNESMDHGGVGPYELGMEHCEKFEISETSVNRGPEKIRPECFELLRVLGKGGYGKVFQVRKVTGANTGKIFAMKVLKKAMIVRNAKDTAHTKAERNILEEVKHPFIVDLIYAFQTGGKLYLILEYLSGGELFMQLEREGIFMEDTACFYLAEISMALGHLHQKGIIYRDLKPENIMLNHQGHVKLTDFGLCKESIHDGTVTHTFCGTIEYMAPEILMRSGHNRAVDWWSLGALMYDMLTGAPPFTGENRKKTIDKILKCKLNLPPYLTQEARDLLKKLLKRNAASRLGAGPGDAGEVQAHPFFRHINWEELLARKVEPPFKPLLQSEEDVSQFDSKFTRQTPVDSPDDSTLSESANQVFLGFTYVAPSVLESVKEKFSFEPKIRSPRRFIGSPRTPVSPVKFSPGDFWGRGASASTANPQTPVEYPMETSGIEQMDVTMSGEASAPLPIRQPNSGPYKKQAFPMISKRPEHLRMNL
Experimental: as §1

[15] = target: NEK1 (Homo sapiens, UniProt Q96PY6); conditions: MOLM-13; 100 nM, 2 hours; Lys2; read-out: Inhibition vs DMSO
Experimental: as §1

[16] = Activation Loop, read-out: Inhibition vs DMSO
[17] = Lys1, read-out: Inhibition vs DMSO
[18] = Protein Kinase Domain, read-out: Inhibition vs DMSO

NEK8, sequence (Q86SG6 whole entry): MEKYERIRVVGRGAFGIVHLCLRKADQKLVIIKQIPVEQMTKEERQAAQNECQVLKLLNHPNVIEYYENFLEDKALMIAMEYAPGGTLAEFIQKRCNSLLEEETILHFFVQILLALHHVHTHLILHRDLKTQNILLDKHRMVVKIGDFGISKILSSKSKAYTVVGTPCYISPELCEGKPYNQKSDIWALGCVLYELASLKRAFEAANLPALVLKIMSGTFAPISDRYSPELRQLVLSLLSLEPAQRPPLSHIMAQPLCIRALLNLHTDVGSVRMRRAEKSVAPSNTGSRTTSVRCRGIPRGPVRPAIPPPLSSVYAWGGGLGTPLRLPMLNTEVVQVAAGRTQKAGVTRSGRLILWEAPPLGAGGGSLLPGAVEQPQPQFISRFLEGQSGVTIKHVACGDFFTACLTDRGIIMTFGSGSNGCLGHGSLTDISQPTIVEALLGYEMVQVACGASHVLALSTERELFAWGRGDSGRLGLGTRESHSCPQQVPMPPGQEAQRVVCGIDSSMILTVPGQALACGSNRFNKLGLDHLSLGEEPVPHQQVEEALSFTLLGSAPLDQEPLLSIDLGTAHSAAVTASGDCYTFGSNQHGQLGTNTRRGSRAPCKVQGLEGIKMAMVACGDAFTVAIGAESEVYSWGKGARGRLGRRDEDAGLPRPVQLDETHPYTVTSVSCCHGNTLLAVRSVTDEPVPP

CN1CCN(Cc2ccc(Nc3ncc(Cl)c(Nc4ccccc4S(=O)(=O)N(C)C)n3)cc2)CC1 [TP-0903]
inhibition at 0.1 µM [1]: -5.3% | inhibition at 0.1 µM [2]: -26% | Inhibition vs DMSO [3]: -0.0231% | inhibition at 0.1 µM [4, 16]: 45.7% | inhibition at 0.1 µM [4, 17]: 48% | inhibition at 0.1 µM ([4]; Lys2, read-out: Inhibition vs DMSO): 48.8% | inhibition at 0.1 µM [5]: -1.3% | inhibition at 0.1 µM [6, 16]: -29% | inhibition at 0.1 µM [6, 17]: -26.9% | inhibition at 0.1 µM [6, 18]: -65.7% | inhibition at 0.1 µM [7, 17]: 6.4% | inhibition at 0.1 µM [7, 18]: -1.3% | inhibition at 0.1 µM [8]: -4.6% | inhibition at 0.1 µM [9]: -4.7% | inhibition at 0.1 µM [10]: -29.3% | inhibition at 0.1 µM [11]: 44.5% | inhibition at 0.1 µM [12]: -0.9% | inhibition at 0.1 µM [13]: -7.5% | inhibition at 0.1 µM [14]: -32.8% | inhibition at 0.1 µM [15]: -21.7%
